Data set [1] has as its target T1, hA1 AR (Homo sapiens, UniProt P30542).
T1 construct: expressed in transfected cells; host or cells: CHO cells
T1 sequence (P30542 1-326): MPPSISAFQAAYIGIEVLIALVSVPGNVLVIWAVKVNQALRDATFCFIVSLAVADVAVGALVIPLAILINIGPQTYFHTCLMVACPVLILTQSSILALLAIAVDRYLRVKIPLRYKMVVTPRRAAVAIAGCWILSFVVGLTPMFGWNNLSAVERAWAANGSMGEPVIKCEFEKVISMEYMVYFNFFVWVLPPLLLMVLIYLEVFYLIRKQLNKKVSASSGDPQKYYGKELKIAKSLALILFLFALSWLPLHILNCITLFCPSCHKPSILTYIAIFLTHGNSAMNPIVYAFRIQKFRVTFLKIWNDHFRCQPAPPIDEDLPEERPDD
The data set is described as follows: [3H]DPCPX competition binding to hA1 CHO cell membranes. Particulars: for I% hA1: percentage of inhibition at 1µM, [3H]DPCPX. Here is the method: (§1) CHO cells transfected with hA1, hA2A, hA2B, and hA3 ARs were grown adherently and maintained in Dulbecco’s modified Eagle’s medium (Sigma-Aldrich, Milan, Italy) with nutrient mixture F12, containing 10% fetal calf serum, penicillin (100 U/mL), streptomycin (100 μg/mL), l-glutamine (2 mM) and geneticin (G418; 0.2 mg/mL) at 37°C in 5% CO2/95% air until the use in cAMP assays. For membrane preparation, the culture medium was removed, and the cells were washed with phosphate-buffered saline and scraped off T75 flasks in ice-cold hypotonic buffer (5 mM Tris HCl, 1 mM EDTA, pH 7.4). The cell suspension was homogenized with a Polytron, centrifuged for 30 min at 40000 g at 4°C, and the resulting membrane pellet was used for competition binding experiments.
(§2) All synthesized compounds have been tested for their affinity to hA1, hA2A, and hA3 ARs. Competition experiments to hA1 ARs were carried out incubating 1 nM [^3H]-8-cyclopentyl-1,3-dipropylxanthine ([^3H]-DPCPX) with membrane suspension (50 μg of protein/100 μL) and different concentrations of the examined compounds at 25°C for 90 min in 50 mM Tris HCl, pH 7.4. […] Inhibition experiments to hA2A ARs were performed incubating the radioligand [^3H]-ZM241385 (4-(2-[7-Amino-2-(2-furyl)[1,2,4]triazolo[2,3-a][1,3,5]triazin-5-ylamino]ethyl)phenol) (1 nM) with the membrane suspension (50 μg of protein/100 μL) and different concentrations of the examined compounds for 60 min at 4°C in 50 mM Tris HCl (pH 7.4), 10 mM MgCl2. Non-specific binding was determined in the presence of ZM241385 (1 μM) and was about 20% of the total binding. Competition binding experiments to A3 ARs were carried out incubating the membrane suspension (50 μg of protein/100 μL) with 0.5 nM [^125I]-N^6-(4-aminobenzyl)-N-methylcarboxamidoadenosine ([^125I]-ABMECA) in the presence of different concentration of the examined compounds for an incubation time of 120 min at 4°C in 50 mM Tris HCl (pH 7.4), 10 mM MgCl2, and 1 mM EDTA. Non-specific binding was defined as binding in the presence of 1μM ABMECA and was always < 10% of the total binding. Bound and free radioactivity were separated by filtering the assay mixture through Whatman GF/B glass fiber filters using a Brandel cell harvester (Brandel Instruments, Unterföhring, Germany). The filter bound radioactivity was counted by Packard Tri Carb 2810 TR scintillation counter (Perkin Elmer, Boston, MA, USA).
(§3) The protein concentration was determined according to a Bio-Rad method with bovine albumin as a standard reference. Inhibitory binding constant (Ki) values were calculated from those of IC50 according to Cheng & Prusoff equation Ki = IC50/(1+[C*]/KD*), where [C*] is the concentration of the radioligand and KD* its dissociation constant. Ki and IC50 values were calculated by non-linear regression analysis using the equation for a sigmoid concentration-response curve (Graph-PAD Prism, San Diego, CA, USA).

The target of data set [2] is T2, hA2B AR (Homo sapiens, UniProt P29275).
T2 construct: expressed in transfected cells; host or cells: CHO cells
T2 sequence (P29275 1-332): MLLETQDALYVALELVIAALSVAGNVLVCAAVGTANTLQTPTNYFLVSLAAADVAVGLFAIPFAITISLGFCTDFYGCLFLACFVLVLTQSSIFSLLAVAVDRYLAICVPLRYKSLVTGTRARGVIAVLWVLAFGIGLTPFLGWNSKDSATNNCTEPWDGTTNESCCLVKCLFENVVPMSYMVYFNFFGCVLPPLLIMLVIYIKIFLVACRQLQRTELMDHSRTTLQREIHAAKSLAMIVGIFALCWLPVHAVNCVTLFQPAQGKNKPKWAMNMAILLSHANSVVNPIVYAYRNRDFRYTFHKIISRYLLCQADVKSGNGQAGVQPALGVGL
The data set is described as follows: cAMP assay, stimulation of cAMP production in hA2B CHO cells (agonism). Particulars: for Emax at 1 µM: CHO, compound at 1µM, in comparison with NECA (1µM = 100%), read-out: Efficacy hA2B (cAMP assays) (converted); for EC50: hA2B CHO cells, means ± SEM of four assays. The class given is cell-based. Here is the method:
The amino-3,5-dicyanopyridines 1–20 were tested for their affinity at hA1, hA2A, and hA3 ARs, stably transfected in Chinese Hamster Ovary (CHO) cells, and were also studied as hA2B agonists by evaluating their stimulatory effect on cAMP production in CHO cells, stably expressing the hA2B AR.
as §1
CHO cells transfected with hAR subtypes were washed with phosphate-buffered saline, detached with trypsin and centrifuged for 10 min at 200 g. Cells were seeded in 96-well white half-area microplate (Perkin Elmer, Boston, USA) in a stimulation buffer composed of Hank Balanced Salt Solution (Sigma-Aldrich, Milan, Italy), 5 mM HEPES, 0.5 mM Ro 20-1724, and 0.1% BSA. cAMP levels were then quantified by using the AlphaScreen cAMP Detection Kit (Perkin Elmer) following the manufacturer’s instructions. At the end of the experiments, plates were read with the Perkin Elmer EnSight Multimode Plate Reader.
(Changes in cAMP serve as a functional read-out for many G protein-coupled receptors.)

The target of data set [3] is T3, hA3 AR (Homo sapiens, UniProt P0DMS8).
T3 construct: expressed in transfected cells; host or cells: CHO cells
T3 sequence (P0DMS8 1-318): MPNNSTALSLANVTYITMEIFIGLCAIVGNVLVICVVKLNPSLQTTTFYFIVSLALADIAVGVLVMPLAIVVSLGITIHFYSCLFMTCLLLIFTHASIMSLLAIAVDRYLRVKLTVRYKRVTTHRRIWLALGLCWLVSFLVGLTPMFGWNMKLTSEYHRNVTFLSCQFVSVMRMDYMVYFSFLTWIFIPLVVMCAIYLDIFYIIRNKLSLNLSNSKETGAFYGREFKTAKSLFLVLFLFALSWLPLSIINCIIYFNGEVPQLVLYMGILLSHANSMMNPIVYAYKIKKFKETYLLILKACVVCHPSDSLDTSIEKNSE
The data set is described as follows: [125I]AB-MECA competition binding to hA3 CHO cell membranes. Particulars: for inhibition at 1 µM: percentage of inhibition at 1µM; for Ki: hA3 CHO cells, means ± SEM. Here is the method: as §1, §2, §3

Data set [4] concerns the target T4, hA2A AR (Homo sapiens, UniProt P29274).
T4 construct: expressed in transfected cells; host or cells: CHO cells
The data set is described as follows: [3H]ZM241385 competition binding to hA2A CHO cell membranes. The following applies: for I% hA2A: percentage of inhibition at 1µM, [3H]ZM241385; for Ki: [3H]ZM241385, hA2A CHO cells, means ± SEM. Here is the method:
as §1, §2, §3

Where only a bound is given, the exact number is not on record here.

The source of these data is publication PMC6958422 (Pharmaceuticals, 2019).

A word on the melting point: it is the temperature, or range, at which the solid turns liquid. By Ki is commonly meant the equilibrium dissociation constant of an inhibitor or competing ligand from its target. Read a low Ki as a stronger hold on the target. The EC50 is the concentration at which the effect is half-maximal. High values mean weaker potency, low ones greater potency. A word on the inhibition: it is the relative decrease from the control value, in per cent. Lower therefore signals a weak effect.

T4 sequence (P29274 whole entry): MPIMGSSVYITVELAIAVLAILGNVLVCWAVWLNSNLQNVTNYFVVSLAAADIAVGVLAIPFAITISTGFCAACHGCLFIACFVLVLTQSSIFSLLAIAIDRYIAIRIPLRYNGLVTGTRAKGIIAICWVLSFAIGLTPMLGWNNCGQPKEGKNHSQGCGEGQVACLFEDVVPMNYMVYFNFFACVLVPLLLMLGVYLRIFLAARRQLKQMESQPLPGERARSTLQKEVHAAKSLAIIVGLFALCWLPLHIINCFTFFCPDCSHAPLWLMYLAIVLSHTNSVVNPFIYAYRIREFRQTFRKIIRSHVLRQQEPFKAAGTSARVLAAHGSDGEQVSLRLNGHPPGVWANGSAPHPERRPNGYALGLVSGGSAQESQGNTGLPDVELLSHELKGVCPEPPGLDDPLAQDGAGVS

With `N#Cc1c(N)nc(NCCO)c(C#N)c1-c1ccccc1` [Compound 15, 2-Amino-6-[(2-hydroxyethyl)amino]-4-phenylpyridine-3,5-dicarbonitrile], the melting point was 230 to 231 °C. In data set [1], the Ki stood at 0.943 ± 0.087 µM. Further, in data set [2], the Emax at 1 µM is 1% and the EC50 is over 1 µM. Further, the inhibition at 1 µM in data set [3] worked out at 1%. Further, the “I% hA2A” value in data set [4] was 1%.
For `N#Cc1c(N)nc(NCc2ncc[nH]2)c(C#N)c1-c1ccccc1` [Compound 14, 2-Amino-6-[(1H-imidazol-2-ylmethyl)amino]-4-phenylpyridine-3,5-dicarbonitrile], the melting point was in the range of 208 to 210 °C. The same compound showed a Ki in data set [1] of 0.14 ± 0.012 µM. In addition, in data set [2], the Emax at 1 µM is 1% and the EC50 is over 1 µM. Moreover, in data set [3], 1 µM produced 19% inhibition. Besides, the Ki in data set [4] worked out at 0.115 ± 0.01 µM.
The compound `COC(=O)CSc1nc(N)c(C#N)c(-c2ccc(OC)cc2)c1C#N` [Compound 20, Methyl{[6-amino-3,5-dicyano-4-(4-methoxyphenyl)pyridin-2-yl]sulfanyl}acetate] yielded a melting point of 218 to 220 °C. Moreover, the Ki in data set [1] came to 0.987 ± 0.081 µM. In data set [2], the Emax at 1 µM is 1% and the EC50 was over 1 µM. Moreover, the inhibition at 1 µM in data set [3] is 5%. In data set [4], the “I% hA2A” value worked out at 1%.
As to `COc1ccc(CCNc2nc(N)c(C#N)c(-c3ccccc3)c2C#N)cc1` [Compound 16, 2-Amino-6-{[2-(4-methoxyphenyl)ethyl]amino}-4-phenylpyridine-3,5-dicarbonitrile], the “I% hA1” value in data set [1] came to 1%. For the same compound, in data set [2], the Emax at 1 µM was 1% and the EC50 was over 1 µM. At 1 µM the inhibition in data set [3] was 1%. Moreover, in data set [4], the “I% hA2A” value is recorded as 1%.
In turn, `N#Cc1cnc(N)c(C#N)c1-c1ccccc1` [Compound 18, 2-amino-4-phenylpyridine-3,5-dicarbonitrile] registered a melting point of 244 to 246 °C. Moreover, the “I% hA1” value in data set [1] is listed as 15%. Moreover, in data set [2], the Emax at 1 µM was 1% and the EC50 is over 1 µM. This compound had an inhibition at 1 µM in data set [3] of 5%. In data set [4], the “I% hA2A” value was 16%.
On to `N#Cc1c(N)nc(SCc2ncc[nH]2)c(C#N)c1-c1ccc(OCC2CCC2)cc1` [Compound 1, 2-Amino-4-[4-(cyclobutylmethoxy)phenyl]-6-[(1H-imidazol-2-ylmethyl)sulfanyl]pyridine-3,5-dicarbonitrile], for which the melting point was in the range of 214 to 216 °C. Moreover, the “I% hA1” value in data set [1] is 25%. In data set [2], the Emax at 1 µM was 12% and the EC50 was over 1 µM. Further, the Ki in data set [3] was determined as 0.574 ± 0.046 µM. The “I% hA2A” value in data set [4] is listed as 4%.
As for `N#Cc1c(N)nc(SCc2ncc[nH]2)c(C#N)c1Cc1ccccc1` [Compound 12, 2-Amino-4-benzyl-6-[(1H-imidazol-2-ylmethyl)sulfanyl]pyridine-3,5-dicarbonitrile], the melting point is 246 to 248 °C (dec.). Also, the “I% hA1” value in data set [1] is listed as 31%. For the same compound, in data set [2], the Emax at 1 µM was 44% and the response was half-maximal at 0.26 ± 0.024 µM (EC50). For the same compound, in data set [3], the inhibition at 1 µM amounted to 1%. In data set [4], the “I% hA2A” value turned out to be 8%.
For `N#Cc1c(N)nc(SCc2ncc[nH]2)c(C#N)c1-c1ccc(C(F)(F)F)cc1` [Compound 9, 2-Amino-6-[(1H-imidazol-2-ylmethyl)sulfanyl]-4-[4-(trifluoromethyl)phenyl]pyridine-3,5-dicarbonitrile], the melting point was 233 to 235 °C (dec.). The affinity in data set [1] corresponds to a Ki of 0.419 ± 0.032 µM. Further, in data set [2], the Emax at 1 µM is 4% and the EC50 was over 1 µM. Moreover, the inhibition at 1 µM in data set [3] was determined as 21%. Besides, in data set [4], the “I% hA2A” value is given as 32%.
As to `N#Cc1c(N)nc(-n2ccnc2)c(C#N)c1-c1ccccc1` [Compound 17, 2-Amino-6-(1H-imidazol-1-yl)-4-phenylpyridine-3,5-dicarbonitrile], the melting point was in the range of 253 to 255 °C. Also, the “I% hA1” value in data set [1] is given as 27%. In addition, in data set [2], the Emax at 1 µM was 1% and the EC50 is over 1 µM. In data set [3], the inhibition at 1 µM was 25%. Further, the “I% hA2A” value in data set [4] is reported as 1%.
On to `COc1ccc(-c2c(C#N)c(N)nc(NCCO)c2C#N)cc1` [Compound 19, 2-Amino-6-[(2-hydroxyethyl)amino]-4-(4-methoxyphenyl)pyridine-3,5-dicarbonitrile], for which the melting point lay in the range of 248 to 250 °C. Further, the “I% hA1” value in data set [1] is 14%. For the same compound, in data set [2], the Emax at 1 µM is 1% and the EC50 is over 1 µM. This compound also displayed an inhibition at 1 µM in data set [3] of 15%. For the same compound, in data set [4], the “I% hA2A” value was 2%.
`CC(C)COc1ccc(-c2c(C#N)c(N)nc(SCc3ncc[nH]3)c2C#N)cc1` [Compound 2, 2-Amino-6-[(1H-imidazol-2-ylmethyl)sulfanyl]-4-[4-(2-methylpropoxy)phenyl]pyridine-3,5-dicarbonitrile] had a melting point of 230 to 232 °C. The “I% hA1” value in data set [1] is 26%. Moreover, in data set [2], the Emax at 1 µM is 36% and it took 0.227 ± 0.021 µM to reach a half-maximal effect (EC50). This compound also returned an inhibition at 1 µM in data set [3] of 1%. In data set [4], the “I% hA2A” value was found to be 1%.
As to `N#Cc1c(N)nc(SCc2ncc[nH]2)c(C#N)c1-c1ccc(Cl)cc1` [Compound 7, 2-Amino-4-(4-chlorophenyl)-6-[(1H-imidazol-2-ylmethyl)sulfanyl]pyridine-3,5-dicarbonitrile], the melting point was 229 to 231 °C (dec.). This compound also showed a Ki in data set [1] of 0.03 ± 0.004 µM. In addition, in data set [2], the Emax at 1 µM was 32% and the EC50 is 0.109 ± 0.012 µM. The compound also showed a Ki in data set [3] of 0.85 ± 0.062 µM. The compound further displayed a Ki in data set [4] of 0.865 ± 0.068 µM.
